# Where two headings read alike, the source gives them in different places.
# Legend:
# [1] = system: tubulin; experiment: HTS-tubulin polymerization assay; assay type: biochemical; details: 120-min kinetic reaction, absorbance 340 nm, vs vehicle
# Method: To further evaluate whether the tubulin–microtubule system was the target site of PCH-1, in vitro microtubule polymerization assays were performed using the microtubule protein with Paclitaxel and Vincristine as a reference. Paclitaxel and Vincristine are antimitotic drugs that have been commonly used in conventional chemotherapy for decades. In 1979, it was shown that Paclitaxel accelerates the initiation of tubulin fiber polymerization and stabilizes the formed tubulin fibers in vitro, even in the absence of GTP or MAP in the solution[30]. Vincristine, on the other hand, binds to tubulin and inhibits its polymerization.
# The assay was performed according to the manufacturer’s instructions. Briefly, compounds were diluted in DMSO to a concentration of 2 mM and then in GTB buffer to a concentration of 50 µM. In the wells of a 96-well plate (UV transparent, half surface wells) previously heated to 37 °C, 10 µl of dilutions of the test compounds were placed in duplicate. The plate was incubated for 2 min at 37 °C, and 100 µl of freshly prepared tubulin solution (4 mg/ml) in GTB-GTP buffer was then added. The plate was immediately placed in a Tecan SPARK 10 M plate reader, and the reaction kinetics were measured with the following settings: absorbance reading: 340 nm, 37 °C, interval: 45 s, number of cycles: 160.
# [2] = system: A-549 cells; experiment: MTT cell viability assay, A-549; assay type: cell-based, human; details: 72 h, MTT, read-out: IC50 ± SD, growth inhibition, A-549
# Method: All the synthesized chalcone-derived pyrazoles were evaluated for their antiproliferative activity against three human non-small cell lung cancer cell lines: A-549, H226, and H460, and a nonmalignant human embryonic kidney cell line HEK293. Cisplatin and 5-fluorouracil (5-FU) were used as a reference. […] The results of the studies are expressed as the IC50 concentration that inhibits 50% growth of cells. […] Following treatment with PCH-1, the viability of all the tested cancer cell lines decreased in a concentration-dependent manner.
# The cell viability assay was performed for A-549, H226, H460, and HEK293 cells after treatment with the test compounds by using the 3-(4,5-dimethylthiazol-2-yl)-2,5-diphenyltetrazolium bromide (MTT, Sigma-Aldrich) assay. Briefly, cells were seeded onto 96-well culture plates for attachment. After 24 h, triplicate wells were treated with DMSO (1%) and the agents. […] After 2–4 h of incubation, the medium was removed, and the formazan crystals were dissolved in 100 μl of DMSO. The absorption was measured at 450 nm with an ASYS UVM340 microplate reader (Biochrom Ltd.). The 50% inhibitory concentration (IC50) was defined as the concentration that reduced the absorbance of the DMSO-treated wells by 50% of the vehicle. The IC50 values were generated from GraphPad Prism 9 software by plotting the survival curve as a function of dose from 3 independent experiments.
# [3] = system: H226 cells; experiment: MTT cell viability assay, H226; assay type: cell-based, human; details: 72 h, MTT, read-out: IC50 ± SD, growth inhibition, H226
# Method: (§1) All the synthesized chalcone-derived pyrazoles were evaluated for their antiproliferative activity against three human non-small cell lung cancer cell lines: A-549, H226, and H460, and a nonmalignant human embryonic kidney cell line HEK293. Cisplatin and 5-fluorouracil (5-FU) were used as a reference. Cells were exposed to a range of PCH concentrations (0.5–100 µM) for 72 h and analyzed by 3-(4,5-dimethylthiazol-2-yl)-2,5-diphenyl-2H-tetrazolium bromide (MTT) assay. The results of the studies are expressed as the IC50 concentration that inhibits 50% growth of cells. […] Following treatment with PCH-1, the viability of all the tested cancer cell lines decreased in a concentration-dependent manner.
# (§2) The cell viability assay was performed for A-549, H226, H460, and HEK293 cells after treatment with the test compounds by using the 3-(4,5-dimethylthiazol-2-yl)-2,5-diphenyltetrazolium bromide (MTT, Sigma-Aldrich) assay. Briefly, cells were seeded onto 96-well culture plates for attachment. After 24 h, triplicate wells were treated with DMSO (1%) and the agents. After 72 h of incubation at 37 °C in 5% CO2, the MTT solution (0.4 mg/ml) was added to each well. After 2–4 h of incubation, the medium was removed, and the formazan crystals were dissolved in 100 μl of DMSO. The absorption was measured at 450 nm with an ASYS UVM340 microplate reader (Biochrom Ltd.). The 50% inhibitory concentration (IC50) was defined as the concentration that reduced the absorbance of the DMSO-treated wells by 50% of the vehicle. The IC50 values were generated from GraphPad Prism 9 software by plotting the survival curve as a function of dose from 3 independent experiments.
# [4] = system: HEK293 cells; experiment: MTT cell viability assay, HEK293; assay type: cell-based, human; details: nonmalignant cells, read-out: IC50 ± SD, growth inhibition, HEK293
# Method: as §1, §2
# [5] = system: H460 cells; experiment: MTT cell viability assay, H460; assay type: cell-based, human; details: 72 h, MTT, read-out: IC50 ± SD, growth inhibition, H460
# Method: as §1, §2
# [6] = system: A-549 cells; experiment: Intracellular ROS measurement (H2DCFDA, flow cytometry); assay type: cell-based, human; details: A-549, all the tested time points (3, 6, 24 h)
# Excerpt: The generation of intracellular reactive oxygen species (ROS) causes an imbalance of cellular redox homeostasis, followed by damage of cellular components and cell death. Therefore, compounds with the ability to produce high levels of ROS and/or inhibit antioxidant processes are often used in anticancer therapies. In the present study, the effect of PCH-1 on ROS generation in A-549 cells was investigated by flow cytometry. As an indicator of ROS generation, the fluorescent probe 2ʹ,7ʹ-dichlorodihydrofluorescein diacetate (H2DCFDA) was used, which undergoes oxidation by ROS to form a highly fluorescent compound 2ʹ,7ʹ-dichlorofluorescein (DCF). As shown in Supplementary Fig. S6 in Supplementary Information, compound PCH-1 induced a massive amount of ROS in A-549 cells in a time-dependent manner. […] Moreover, the induction of ROS was equally high for PCH-1 and the reference compound H2O2 in all the tested time points.
# For determination the ROS generation, cells were treated with IC90 of PCH-1, H2O2, or 1% DMSO for 3, 6, and 24 h. Next, a 1 µM CM-H2DCFDA (#C6827; Thermo-Fisher) probe was added to the cells in each plate 30 min before the end of the drug treatment. After incubation cells were collected by trypsinization, stained with 7-Aminoactinomycin D (7-AAD, Sigma-Aldrich), and measured. The analysis was performed with Guava EasyCyte 8 cell sorter (Merck Millipore) and FlowJo software v10. Each experiment was repeated independently three times.
SMILES,"IC50 ([2]; Homo sapiens, A549)","IC50 ([3]; Homo sapiens, NCI-H226)","IC50 ([4]; Homo sapiens, HEK293, 72 h)","IC50 ([5]; Homo sapiens, NCI-H460)",also measured
CC(=O)O[C@H]1C(=O)[C@@]2(C)[C@H]([C@H](OC(=O)c3ccccc3)[C@]3(O)C[C@H](OC(=O)[C@H](O)[C@@H](NC(=O)c4ccccc4)c4ccccc4)C(C)=C1C3(C)C)[C@]1(OC(C)=O)CO[C@@H]1C[C@@H]2O [Paclitaxel],,,,,effect on tubulin polymerization kinetics [1]: accelerated the nucleation phase and increased the total mass of tubulin polymer
"O=c1[nH]cc(F)c(=O)[nH]1 [5-FU, 5-fluorouracil, reference compound]",8.12 ± 1.01 µM,4.01 ± 0.76 µM,11.1 ± 1.53 µM,4.08 ± 0.43 µM,
"COc1ccc(C2=NN(C(C)=O)C(c3ccc4c(c3)CCO4)C2)cc1 (centres unmarked) [PCH-7, 1-[5-(2,3-dihydro-1-benzofuran-5-yl)-3-(4-methoxyphenyl)-4,5-dihydro-1H-pyrazol-1-yl]ethan-1-one]",> 100 µM,41.5 ± 1.12 µM,> 100 µM,30.2 ± 2.14 µM,
"CC(=O)N1N=C(c2ccc(C)cc2)CC1c1ccc2c(c1)OCO2 (centres unmarked) [PCH-3, 1-[5-(2H-1,3-benzodioxol-5-yl)-3-(4-methylphenyl)-4,5-dihydro-1H-pyrazol-1-yl]ethan-1-one]",> 100 µM,86.7 ± 0.92 µM,> 100 µM,24.5 ± 1.74 µM,
"CC[C@]1(O)C[C@H]2CN(CCc3c([nH]c4ccccc34)[C@@](C(=O)OC)(c3cc4c(cc3OC)N(C=O)[C@H]3[C@@](O)(C(=O)OC)[C@H](OC(C)=O)[C@]5(CC)C=CCN6CC[C@]43[C@@H]65)C2)C1 [Vincristine, vincristine]",,,,,effect on tubulin polymerization kinetics [1]: extended the nucleation time and reduced the total mass of tubulin polymer
"COc1cc([C@@H]2c3cc4c(cc3[C@@H](O[C@@H]3O[C@@H]5CO[C@@H](C)O[C@H]5[C@H](O)[C@H]3O)[C@H]3COC(=O)[C@H]23)OCO4)cc(OC)c1O [Etoposide, reference compound]",0.54 ± 0.21 µM,1.03 ± 0.16 µM,1.91 ± 0.97 µM,0.05 ± 0.01 µM,
"OO [H2O2, reference compound]",,,,,"induction of ROS, reference compared with PCH-1 [6]: equally high"
"COc1cc2c(cc1C1=NN(C(C)=O)C(c3ccc(O)cc3)C1)SCO2 (centres unmarked) [PCH-9, 1-[5-(4-hydroxyphenyl)-3-(6-methoxy-2H-1,3-benzoxathiol-5-yl)-4,5-dihydro-1H-pyrazol-1-yl]ethan-1-one]",79.5 ± 4.97 µM,38.4 ± 3.53 µM,34.4 ± 2.01 µM,43.8 ± 3.97 µM,
"CC(=O)N1N=C(c2ccc(OC(F)(F)F)cc2)CC1c1ccc2c(c1)OCO2 (centres unmarked) [PCH-6, 1-{5-(2H-1,3-benzodioxol-5-yl)-3-[4-(trifluoromethoxy)phenyl]-4,5-dihydro-1H-pyrazol-1-yl}ethan-1-one]",21.5 ± 4.26 µM,24.4 ± 2.13 µM,42.9 ± 1.23 µM,18.1 ± 2.13 µM,
"COc1cc(C2=NN(C(C)=O)C(c3ccc4c(c3)OCO4)C2)cc(OC)c1OC (centres unmarked) [PCH-2, 1-[5-(2H-1,3-benzodioxol-5-yl)-3-(3,4,5-trimethoxyphenyl)-4,5-dihydro-1H-pyrazol-1-yl]ethan-1-one]",> 100 µM,40.5 ± 3.52 µM,> 100 µM,43.8 ± 1.12 µM,
"COc1ccc(C2=NN(C(C)=O)C(c3cc4c(cc3OC)OCO4)C2)cc1 (centres unmarked) [PCH-8, 1-[5-(6-methoxy-2H-1,3-benzodioxol-5-yl)-3-(4-methoxyphenyl)-4,5-dihydro-1H-pyrazol-1-yl]ethan-1-one]",> 100 µM,61.1 ± 3.12 µM,> 100 µM,30.2 ± 2.14 µM,
"N.N.[Cl][Pt][Cl] [Cisplatin, reference compound]",,,,,IC50 [2]: 29.01 ± 0.12 µM; IC50 [3]: 17.5 ± 2.12 µM; IC50 ([4]; 72 h): 28.4 ± 1.97 µM; IC50 [5]: 21.5 ± 1.87 µM
"COc1ccccc1C1=NN(C(C)=O)C(c2ccc3c(c2)OCO3)C1 (centres unmarked) [PCH-4, 1-[5-(2H-1,3-benzodioxol-5-yl)-3-(2-methoxyphenyl)-4,5-dihydro-1H-pyrazol-1-yl]ethan-1-one]",> 100 µM,86.7 ± 4.7 µM,> 100 µM,63.4 ± 3.34 µM,
"CC(=O)N1N=C(c2ccc3c(c2)OCO3)CC1c1ccc2c(c1)OCO2 (centres unmarked) [PCH-5, 1-[3,5-bis(2H-1,3-benzodioxol-5-yl)-4,5-dihydro-1H-pyrazol-1-yl]ethan-1-one]",60.9 ± 4.3 µM,58 ± 2.56 µM,47 ± 3.18 µM,38.8 ± 1.77 µM,

# — paper PMC8904451, “Novel chalcone-derived pyrazoles as potential therapeutic agents for the treatment of non-small cell lung cancer” (Scientific Reports, 2022)
